# Data as given in US20260216055A1, “PLANT-MINERAL COMPOSITION FOR PH-DEPENDENT REGULATION OF TYPE 3 AQUAPORINS BASED ON ALOE BARBADENSIS” (SKYLAB AG, priority 2022, published 2026).
# Assays:
# HaCaT cells = experiment: Cytotoxicity estimation of the components on skin keratinocytes (MTT); type: cell-based; conditions: 24 hours
# Source text: The study method is based on the definition of the amount of Type 3 aquaporins in epidermal keratinocytes after adding the components of the composition into HaCaT cell culture medium. At the first stage, cytotoxicity of the components is estimated depending on the concentration of components in the composition, be determining the number of survived cells according to MTT concentration with a color dilution method. Cells of HaCaT line were used in the amount of 10 000 cells per well in a 96-well plate. The testing facilities were as follows: humidified atmosphere with 5% CO2 at 37° C. Incubation time equaled 24 hours. For the negative control, purified water without any components of the composition was used. The number of survived cells was registered with MTT at 570 nm. The number of biological replicates was 3.
# Type 3 aquaporins (AQP3) = experiment: Amount of Type 3 aquaporins in skin keratinocytes (HaCaT, sandwich ELISA); type: cell-based; conditions: Table 7 experiment, 24 hours, Aloe extract 0.01%, trimethylglycine 1%, combination 0.01% + 1% equivalent to active ingredients, Hydagen Aquaporin 1% for the raw material
# Source text: At the second stage, the definition of the amount of Type 3 aquaporins in keratinocytes after cultivation under the standard conditions, using the maximum non-toxic concentration of the component from the previous text. To determine the amount of AQP3, a commercially available test with the use of sandwich-type enzyme-linked immunoassay was used. Cells of HaCaT line with the density of 10^5 cells per well were introduced to the 96-well plate. On the next day, the cell medium was removed and replaced with DMEM+5% FBS 50 μL fresh cell medium to maintain cell growth. Next, 50 μL of samples of the composition under the invention was added, and cultivation was performed for 24 hours. In all the tests, 0.20% sodium chloride was added to the cell medium to regulate osmotic balance and to create physiological conditions to cultivate skin cells. The cultivating environment conditions were as follows: humidified atmosphere with 5% CO2 at 37° C. After incubation, cell supernatant was collected, and the amount of Type 3 aquaporins in skin keratinocytes was determined with ELISA method. […] Only after binding the 3 components of the reagent with AQP3 a stable color could be achieved, which was fixed with sulphuric acid and spectropotometrically detected at 450±10 nm wave length. […]
# skin = conditions: 2% in body cleansers, 12 hours after the contact with the product; cited from earlier work
# [1] = aloin in the extract composition; cited from earlier work
smiles,measurement,setting,value
"C[N+](C)(C)CC(=O)[O-] [Trimethylglycine, trimethylglycine]","Vitality of cells, % when adding the components of the composition into the cultural medium",HaCaT cells; 0.03% (weight %) in medium,98.8 ± 3.47%
same,"Vitality of cells, % when adding the components of the composition into the cultural medium",HaCaT cells; 0.10% (weight %) in medium,99.9 ± 1.47%
same,"Vitality of cells, % when adding the components of the composition into the cultural medium",HaCaT cells; 0.25% (weight %) in medium,95.4 ± 2.94%
same,"Vitality of cells, % when adding the components of the composition into the cultural medium",HaCaT cells; 1.00% (weight %) in medium,93.5 ± 1.66%
same,"Vitality of cells, % when adding the components of the composition into the cultural medium",HaCaT cells; 10.00% (weight %) in medium,90.3 ± 6.82%
same,"Increase of AQP3 amount in relation to the negative control, %",Type 3 aquaporins (AQP3),+17.92%
same,Amount of AQP3,Type 3 aquaporins (AQP3); negative control 5.58 ± 0.24,6.58 ± 1.08 ng/mL
CCCCCCCCCCCCOS(=O)(=O)[O-].[Na+] [sodium lauryl sulfate],Transepidermal water loss,skin,68.9 g/m^2/h
O=C1c2c(O)cccc2C([C@@H]2O[C@H](CO)[C@@H](O)[C@H](O)[C@H]2O)c2cc(CO)cc(O)c21 (stereo partly drawn) [Aloin],UV radiation neutralized when applied on skin surface,[1],up to 30%
